Test results published in PubChem BioAssay (NCI).
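Exposure lasted 48 hours, with cells grown in 96-well plates and compounds tested at five concentrations. TGI is the concentration that stops growth completely.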

Legend:
Test in all cases: NCI tumour cell line growth inhibition, 48 h
SK-MEL-2 melanoma = tested on: SK-MEL-2 melanoma
SF-539 CNS = tested on: SF-539 CNS
HT29 colon = tested on: HT29 colon
MOLT-4 leukemia = tested on: MOLT-4 leukemia
MDA-MB-435 = tested on: MDA-MB-435
SF-268 CNS = tested on: SF-268 CNS
OVCAR-3 ovarian = tested on: OVCAR-3 ovarian
OVCAR-8 ovarian = tested on: OVCAR-8 ovarian
NCI-H522 lung = tested on: NCI-H522 lung
HS 578T breast = tested on: HS 578T breast
HCT-15 colon = tested on: HCT-15 colon
A498 renal = tested on: A498 renal
NCI-H226 lung = tested on: NCI-H226 lung
ACHN renal = tested on: ACHN renal
CCRF-CEM leukemia = tested on: CCRF-CEM leukemia
NCI-H23 lung = tested on: NCI-H23 lung
IGROV1 ovarian = tested on: IGROV1 ovarian
K-562 leukemia = tested on: K-562 leukemia
BT-549 breast = tested on: BT-549 breast
MDA-MB-231 breast = tested on: MDA-MB-231 breast
DU-145 prostate = tested on: DU-145 prostate
T-47D breast = tested on: T-47D breast
MCF7 breast = tested on: MCF7 breast
M14 melanoma = tested on: M14 melanoma
SR leukemia = tested on: SR leukemia
OVCAR-4 ovarian = tested on: OVCAR-4 ovarian
UACC-62 melanoma = tested on: UACC-62 melanoma
HCT-116 colon = tested on: HCT-116 colon
EKVX NSCLC = tested on: EKVX NSCLC
U251 CNS = tested on: U251 CNS
HOP-62 NSCLC = tested on: HOP-62 NSCLC
SNB-75 CNS = tested on: SNB-75 CNS
TK-10 renal = tested on: TK-10 renal
SN12C renal = tested on: SN12C renal
LOX IMVI melanoma = tested on: LOX IMVI melanoma
NCI/ADR-RES ovarian = tested on: NCI/ADR-RES ovarian
SF-295 CNS = tested on: SF-295 CNS
SW-620 colon = tested on: SW-620 colon
786-0 renal = tested on: 786-0 renal
CAKI-1 renal = tested on: CAKI-1 renal
HL-60(TB) leukemia = tested on: HL-60(TB) leukemia
SK-MEL-28 melanoma = tested on: SK-MEL-28 melanoma
NCI-H460 lung = tested on: NCI-H460 lung
HOP-92 NSCLC = tested on: HOP-92 NSCLC
OVCAR-5 ovarian = tested on: OVCAR-5 ovarian
RXF 393 renal = tested on: RXF 393 renal
SNB-19 CNS = tested on: SNB-19 CNS
HCC-2998 colon = tested on: HCC-2998 colon
PC-3 prostate = tested on: PC-3 prostate
SK-MEL-5 melanoma = tested on: SK-MEL-5 melanoma
RPMI-8226 leukemia = tested on: RPMI-8226 leukemia
SK-OV-3 ovarian = tested on: SK-OV-3 ovarian
A549 NSCLC = tested on: A549 NSCLC
UACC-257 melanoma = tested on: UACC-257 melanoma
COLO 205 colon = tested on: COLO 205 colon

Question: For C[C@@H](CCO)OC1OC(COC(=O)C(C)(C)C)C(OC(=O)C(C)(C)C)C(OC(=O)C(C)(C)C)C1OC(=O)C(C)(C)C (stereo not given in full), which TGI (SK-MEL-2 melanoma) is on record?
Answer: The TGI was > 100 µM.

Question: And the TGI (SF-539 CNS)?
Answer: The TGI was > 100 µM.

Question: And the TGI (HT29 colon)?
Answer: The TGI was 35.7 µM.

Question: And the TGI (MOLT-4 leukemia)?
Answer: Its TGI is > 100 µM.

Question: And the TGI (MDA-MB-435)?
Answer: The TGI was > 100 µM.

Question: And the TGI (SF-268 CNS)?
Answer: The TGI was > 100 µM.

Question: And the TGI (OVCAR-3 ovarian)?
Answer: Its TGI is > 100 µM.

Question: And the TGI (OVCAR-8 ovarian)?
Answer: The TGI was > 100 µM.

Question: And the TGI (NCI-H522 lung)?
Answer: The TGI was 95.7 µM.

Question: What about the TGI (HS 578T breast) of the same molecule?
Answer: Its TGI is > 100 µM.

Question: And the TGI (HCT-15 colon)?
Answer: Its TGI is > 100 µM.

Question: And the TGI (A498 renal)?
Answer: The TGI was > 100 µM.

Question: What about the TGI (NCI-H226 lung) of the same molecule?
Answer: The TGI was > 100 µM.

Question: What about the TGI (ACHN renal) of the same molecule?
Answer: The TGI was > 100 µM.

Question: And the TGI (CCRF-CEM leukemia)?
Answer: Its TGI is > 100 µM.

Question: And the TGI (NCI-H23 lung)?
Answer: Its TGI is > 100 µM.

Question: And the TGI (IGROV1 ovarian)?
Answer: Its TGI is > 100 µM.

Question: And the TGI (K-562 leukemia)?
Answer: The TGI was > 100 µM.

Question: And the TGI (BT-549 breast)?
Answer: The TGI was > 100 µM.

Question: And the TGI (MDA-MB-231 breast)?
Answer: The TGI was 25.9 µM.

Question: And the TGI (DU-145 prostate)?
Answer: The TGI was > 100 µM.

Question: And the TGI (T-47D breast)?
Answer: Its TGI is > 100 µM.

Question: What about the TGI (MCF7 breast) of the same molecule?
Answer: The TGI was > 100 µM.

Question: What about the TGI (M14 melanoma) of the same molecule?
Answer: The TGI was > 100 µM.

Question: What about the TGI (SR leukemia) of the same molecule?
Answer: Its TGI is > 100 µM.

Question: And the TGI (OVCAR-4 ovarian)?
Answer: Its TGI is > 100 µM.

Question: And the TGI (UACC-62 melanoma)?
Answer: Its TGI is > 100 µM.

Question: And the TGI (HCT-116 colon)?
Answer: Its TGI is > 100 µM.

Question: And the TGI (EKVX NSCLC)?
Answer: The TGI was > 100 µM.

Question: What about the TGI (U251 CNS) of the same molecule?
Answer: Its TGI is > 100 µM.

Question: What about the TGI (HOP-62 NSCLC) of the same molecule?
Answer: The TGI was > 100 µM.

Question: And the TGI (SNB-75 CNS)?
Answer: The TGI was > 100 µM.

Question: And the TGI (TK-10 renal)?
Answer: Its TGI is > 100 µM.

Question: And the TGI (SN12C renal)?
Answer: The TGI was > 100 µM.

Question: And the TGI (LOX IMVI melanoma)?
Answer: The TGI was > 100 µM.

Question: And the TGI (NCI/ADR-RES ovarian)?
Answer: Its TGI is > 100 µM.

Question: What about the TGI (SF-295 CNS) of the same molecule?
Answer: Its TGI is 76.7 µM.

Question: What about the TGI (SW-620 colon) of the same molecule?
Answer: Its TGI is > 100 µM.

Question: What about the TGI (786-0 renal) of the same molecule?
Answer: Its TGI is > 100 µM.

Question: And the TGI (CAKI-1 renal)?
Answer: Its TGI is > 100 µM.

Question: What about the TGI (HL-60(TB) leukemia) of the same molecule?
Answer: Its TGI is 62.5 µM.

Question: What about the TGI (SK-MEL-28 melanoma) of the same molecule?
Answer: The TGI was > 100 µM.

Question: What about the TGI (NCI-H460 lung) of the same molecule?
Answer: The TGI was 36.6 µM.

Question: What about the TGI (HOP-92 NSCLC) of the same molecule?
Answer: The TGI was > 100 µM.

Question: And the TGI (OVCAR-5 ovarian)?
Answer: The TGI was > 100 µM.

Question: And the TGI (RXF 393 renal)?
Answer: The TGI was 61 µM.

Question: What about the TGI (SNB-19 CNS) of the same molecule?
Answer: Its TGI is > 100 µM.

Question: And the TGI (HCC-2998 colon)?
Answer: The TGI was 31.4 µM.

Question: What about the TGI (PC-3 prostate) of the same molecule?
Answer: The TGI was > 100 µM.

Question: And the TGI (SK-MEL-5 melanoma)?
Answer: The TGI was 58.1 µM.

Question: What about the TGI (RPMI-8226 leukemia) of the same molecule?
Answer: The TGI was 81.8 µM.

Question: And the TGI (SK-OV-3 ovarian)?
Answer: Its TGI is > 100 µM.

Question: What about the TGI (A549 NSCLC) of the same molecule?
Answer: The TGI was > 100 µM.

Question: What about the TGI (UACC-257 melanoma) of the same molecule?
Answer: The TGI was > 100 µM.

Question: And the TGI (COLO 205 colon)?
Answer: Its TGI is > 100 µM.
